One may read the inhibition as how much of the control response was suppressed.

This assay deals with T1, IN-GCN2 interaction (UniProt P04585+Q9P2K8).
T1 construct: active truncated version of the human protein (192-1024); Recombinant full-length HIV-1 IN was produced in-house; purchased SignalChem (GCN2); IN made in-house in E. coli BL21(DE3)pLysS E12-11G; host or cells: BL21(DE3)pLysS for IN
Kind of assay: biochemical. It counts as binding, HIV-1 IN; human GCN2. The settings on record: read-out: inhibition of the IN-GCN2 interaction at 100 µM. How it is done:
The interaction between IN and GCN2 was monitored using the AlphaLISA technology (Revvity). The reaction was performed in a shallow-well 384-well microplate (Revvity, AlphaPlate-384SW, ProxiPlate) with 24 nM GST-GCN2, 700 nM 6xHis-IN, 10 µg/mL of nickel chelate acceptor beads and glutathione donor beads, the test compound or an equivalent amount of DMSO (solvent at 10 % final concentration) in a buffer composed of 50 mM Tris-HCl pH 7.5, 1 mM DTT, 0.05% Tween 20, 0.1% bovine serum albumin (BSA) and 40 mM NaCl (final volume 15µl). First, the reaction was initiated by adding the various components except the donor beads. After 20 minutes at room temperature, the donor beads were added and the plate sealed. Data acquisition was performed 120 minutes later using a Victor Nivo Multimode Plate Reader (Revvity). Means, standard deviations and graphical representation were generated using Prism 8.4.3 software (GraphPad).
420 molecules from the National Cancer Institute Developmental Therapeutics Program (NCI DTP) were screened as modulators of the IN-GCN2 interaction in vitro. […] Experiments were conducted onto two separate AlphaPlates 384-shallow well, with 180 and 240 molecules respectively and 12 DMSO control each.

SMILES strings stand for the structures.

T1 sequence (Q9P2K8 192-1024, other chains not shown): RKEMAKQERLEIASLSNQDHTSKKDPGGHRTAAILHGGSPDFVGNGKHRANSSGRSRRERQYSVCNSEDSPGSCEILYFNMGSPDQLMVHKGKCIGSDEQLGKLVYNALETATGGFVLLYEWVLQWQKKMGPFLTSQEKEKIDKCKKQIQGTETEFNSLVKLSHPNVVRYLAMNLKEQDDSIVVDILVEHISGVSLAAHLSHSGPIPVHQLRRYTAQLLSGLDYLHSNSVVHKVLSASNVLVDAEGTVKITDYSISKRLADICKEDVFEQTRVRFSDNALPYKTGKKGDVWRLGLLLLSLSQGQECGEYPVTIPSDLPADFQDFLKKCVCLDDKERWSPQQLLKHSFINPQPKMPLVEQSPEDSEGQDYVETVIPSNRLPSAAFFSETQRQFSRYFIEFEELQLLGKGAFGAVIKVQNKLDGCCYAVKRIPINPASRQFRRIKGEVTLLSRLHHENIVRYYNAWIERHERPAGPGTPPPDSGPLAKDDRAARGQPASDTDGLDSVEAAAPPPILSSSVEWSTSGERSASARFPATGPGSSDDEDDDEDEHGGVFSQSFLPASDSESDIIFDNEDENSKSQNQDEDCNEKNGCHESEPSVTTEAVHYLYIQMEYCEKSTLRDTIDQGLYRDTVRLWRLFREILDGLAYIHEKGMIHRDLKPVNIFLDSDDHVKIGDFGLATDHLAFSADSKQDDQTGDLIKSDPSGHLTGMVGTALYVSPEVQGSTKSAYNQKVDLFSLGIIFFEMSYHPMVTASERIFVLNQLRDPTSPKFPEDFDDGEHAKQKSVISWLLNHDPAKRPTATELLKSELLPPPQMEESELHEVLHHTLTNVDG

For `CCOC(=O)N1CCc2cc(OC)c(OC)c3c2c1cc1cc(OC)c(OC)cc13` [III-3d, Dibenzo[de,g]quinoline-6-carboxylic acid, 4,5-dihydro-1,2,9,10-tetramethoxy-, ethyl ester], the inhibition at 100 µM is roughly 55%.

On to `COc1cc2c(cc1OC)c1c(OC)c(OC)cc3c1c1c2sc(=S)n1CC3` [III-3a, 7,8,10,11-Tetramethoxy-4,5-dihydrodibenzo[de,g]-[1,3]thiazolo[5,4,3-ij]quinoline-2-thione], for which the inhibition at 100 µM was roughly 80%.

The record behind these values is patent EP4789664A1, “NOVEL ANTI[…] AND USES THEREOF” (priority 2025, dated 2026).
